Experimental data as given in patent US20260085053A1, “BENZOFURAN DERIVATIVES AS SIK INHIBITORS AND THE USE THEREOF” (BEONE MEDICINES I GMBH, priority 2023, published 2026).

Assays:
[1] = target: T1, SIK1 kinase (aa1-303, Thermo Fisher) (Homo sapiens, UniProt P57059); assay: Biochemical activities determination for SIK1 protein (TR-FRET); conditions: 110 uM ATP, 0.5 μM STK1 substrate
T1 construct: SIK1 kinase (aa1-303, Thermo Fisher); purchased Thermo Fisher
Procedure, shortened: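 TR-FRET kinase assay with SIK1 (aa1-303), 110 uM ATP, 0.5 μM STK1 substrate and 0-10 μM compound in Tris pH 7.5 with MgCl2, EGTA, DTT, Triton X-100. Enzyme preincubated with compound 60 min, reaction 180 min at room temperature; 665/620 nm ratio after overnight detection; IC50 from four-parameter logistic fit.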

[2] = target: T2, SIK2 kinase (full length, Thermo Fisher) (Homo sapiens, UniProt Q9H0K1); assay: Biochemical activities determination for SIK2 protein (TR-FRET); conditions: 80 uM ATP, 0.5 μM substrate
T2 construct: SIK2 kinase (full length, Thermo Fisher); purchased Thermo Fisher
T2 sequence (Q9H0K1 whole entry): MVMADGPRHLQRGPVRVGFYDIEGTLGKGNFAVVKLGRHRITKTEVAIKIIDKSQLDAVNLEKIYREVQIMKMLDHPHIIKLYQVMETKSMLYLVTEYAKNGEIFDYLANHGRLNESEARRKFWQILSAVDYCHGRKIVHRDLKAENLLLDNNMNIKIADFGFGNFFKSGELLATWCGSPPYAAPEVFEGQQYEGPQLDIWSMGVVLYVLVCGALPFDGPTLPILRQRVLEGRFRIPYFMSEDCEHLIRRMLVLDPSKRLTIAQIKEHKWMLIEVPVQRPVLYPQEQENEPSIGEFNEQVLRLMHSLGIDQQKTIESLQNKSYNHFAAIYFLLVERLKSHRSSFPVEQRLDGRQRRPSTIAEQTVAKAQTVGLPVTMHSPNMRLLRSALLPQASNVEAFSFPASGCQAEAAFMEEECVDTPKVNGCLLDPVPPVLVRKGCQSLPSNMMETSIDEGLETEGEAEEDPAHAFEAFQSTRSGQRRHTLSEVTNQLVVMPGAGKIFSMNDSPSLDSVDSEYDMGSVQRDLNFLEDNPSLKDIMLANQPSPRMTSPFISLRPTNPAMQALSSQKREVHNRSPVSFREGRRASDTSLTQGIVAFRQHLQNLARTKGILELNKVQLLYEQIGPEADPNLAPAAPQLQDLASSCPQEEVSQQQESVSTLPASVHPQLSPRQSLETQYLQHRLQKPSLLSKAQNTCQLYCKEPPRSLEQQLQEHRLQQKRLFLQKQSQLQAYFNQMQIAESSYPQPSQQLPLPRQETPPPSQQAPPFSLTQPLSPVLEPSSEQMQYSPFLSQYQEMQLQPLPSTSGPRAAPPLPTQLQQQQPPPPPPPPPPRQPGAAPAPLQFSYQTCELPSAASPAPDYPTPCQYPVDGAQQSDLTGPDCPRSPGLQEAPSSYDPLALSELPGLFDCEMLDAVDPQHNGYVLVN
Procedure, shortened: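 Full-length SIK2 preincubated 60 min with 0–10 μM compound, then reacted 180 min at room temperature with 80 uM ATP and 0.5 μM biotinylated substrate (pH 7.5 Tris/MgCl2 buffer). Phosphorylation detected by TR-FRET (665/620 nm ratio, cryptate antibody/streptavidin-XL665) after overnight incubation; IC50 from four-parameter logistic fit.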

[3] = target: T3, SIK3 kinase (aa59-365, Thermo Fisher) (Homo sapiens, UniProt Q9Y2K2); assay: Biochemical activities determination for SIK3 protein (TR-FRET); conditions: 125 uM ATP, 0.5 μM STK1 substrate
T3 construct: SIK3 kinase (aa59-365, Thermo Fisher); purchased Thermo Fisher
T3 sequence (Q9Y2K2 59-365): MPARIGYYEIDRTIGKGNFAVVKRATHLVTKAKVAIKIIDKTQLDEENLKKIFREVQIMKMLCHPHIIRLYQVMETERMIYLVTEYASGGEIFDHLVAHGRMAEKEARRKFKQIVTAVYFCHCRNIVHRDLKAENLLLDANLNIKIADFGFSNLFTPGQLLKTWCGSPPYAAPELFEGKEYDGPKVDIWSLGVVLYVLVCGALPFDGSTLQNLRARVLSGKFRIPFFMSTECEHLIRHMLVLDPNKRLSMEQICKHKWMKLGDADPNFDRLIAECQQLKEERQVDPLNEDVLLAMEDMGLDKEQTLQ
Procedure, shortened: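 SIK3 (aa59-365) was preincubated with compound (0-10 μM) for 60 min at room temperature in Tris buffer pH 7.5. The reaction was then started with 125 uM ATP and 0.5 μM STK1 substrate and run 180 min at room temperature. Phospho-substrate was detected by HTRF (665/620 nm ratio), and IC50 came from a four-parameter logistic fit.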

T1 sequence (P57059 1-303): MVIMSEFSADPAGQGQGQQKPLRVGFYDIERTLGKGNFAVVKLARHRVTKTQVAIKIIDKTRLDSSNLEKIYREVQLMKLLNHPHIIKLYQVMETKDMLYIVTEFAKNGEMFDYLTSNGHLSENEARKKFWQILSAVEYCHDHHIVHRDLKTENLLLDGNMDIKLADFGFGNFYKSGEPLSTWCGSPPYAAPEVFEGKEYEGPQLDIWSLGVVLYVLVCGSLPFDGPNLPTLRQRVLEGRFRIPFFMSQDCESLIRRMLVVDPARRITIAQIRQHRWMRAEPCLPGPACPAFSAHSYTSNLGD

SMILES	IC50 [1]	IC50 [2]	IC50 [3]
COc1cc(-c2coc3cc(OCCN4CCCC4)ccc23)cc(OC(F)F)c1C(=O)NC1CCCC1 [Compound 128, N-cyclopentyl-2-(difluoromethoxy)-6-methoxy-4-(6-(2-(pyrrolidin-1-yl)ethoxy)benzofuran-3-yl)benzamide]	> 10000 nM	156 nM	812 nM
COc1cc(-c2coc3cc(OCCN4CCCC4)ccc23)cc(OC(F)F)c1C(=O)NC1CCC1 [Compound 129, N-cyclobutyl-2-(difluoromethoxy)-6-methoxy-4-(6-(2-(pyrrolidin-1-yl)ethoxy)benzofuran-3-yl)benzamide]	> 10000 nM	146 nM	683 nM
COc1cc(-c2coc3cc(-c4cnn(C)c4)ccc23)cc(OC(F)F)c1C(=O)NC1CC1 [Compound 132, N-cyclopropyl-2-(difluoromethoxy)-6-methoxy-4-(6-(1-methyl-1H-pyrazol-4-yl)benzofuran-3-yl)benzamide]	124 nM	13 nM	15 nM
COc1cc(-c2coc3cc(-c4ccc(C)nn4)ccc23)cc(OC(F)F)c1C(=O)NC1CC1 [Compound 133, N-cyclopropyl-2-(difluoromethoxy)-6-methoxy-4-(6-(6-methylpyridazin-3-yl)benzofuran-3-yl)benzamide]	> 10000 nM	199 nM	199 nM
NC1CCN(c2cccc3ccc(-c4coc5cc(OCCN6CCOCC6)ccc45)nc23)CC1 [Compound 134, 1-(2-(6-(2-morpholinoethoxy)benzofuran-3-yl)quinolin-8-yl) piperidin-4-amine]	958 nM	66 nM	156 nM

Other lines, results leading:

IC50 [1]	IC50 [2]	IC50 [3]	SMILES
303 nM	10 nM	19 nM	COc1cc(-c2coc3cc(-c4cnn(C)c4)ccc23)cc2c1C(=O)N(CC(F)(F)F)CC2 [Example 1, 8-methoxy-6-(6-(1-methyl-1H-pyrazol-4-yl)benzofuran-3-yl)-2-(2,2,2-trifluoroethyl)-3,4-dihydroisoquinolin-1 (2H)-one]
375 nM	15 nM	28 nM	CCn1cc(-c2ccc3c(-c4cc5c(c(OC)c4)C(=O)N(CC(F)(F)F)CC5)coc3c2)cn1 [Example 2, 6-(6-(1-ethyl-1H-pyrazol-4-yl)benzofuran-3-yl)-8-methoxy-2-(2,2,2-trifluoroethyl)-3,4-dihydroisoquinolin-1 (2H)-one]
476 nM	28 nM	42 nM	COc1cc(-c2coc3cc(-c4cnn(C(C)C)c4)ccc23)cc2c1C(=O)N(CC(F)(F)F)CC2 [Example 3, 6-(6-(1-isopropyl-1H-pyrazol-4-yl)benzofuran-3-yl)-8-methoxy-2-(2,2,2-trifluoroethyl)-3,4-dihydroisoquinolin-1 (2H)-one]
728 nM	37 nM	53 nM	COc1cc(-c2coc3cc(-c4cnn(C5CC5)c4)ccc23)cc2c1C(=O)N(CC(F)(F)F)CC2 [Example 4, 6-(6-(1-cyclopropyl-1H-pyrazol-4-yl)benzofuran-3-yl)-8-methoxy-2-(2,2,2-trifluoroethyl)-3,4-dihydroisoquinolin-1 (2H)-one]
538 nM	33 nM	41 nM	COc1cc(-c2coc3cc(-c4cc(C)n[nH]4)ccc23)cc2c1C(=O)N(CC(F)(F)F)CC2 [Example 5, 8-methoxy-6-(6-(3-methyl-1H-pyrazol-5-yl)benzofuran-3-yl)-2-(2,2,2-trifluoroethyl)-3,4-dihydroisoquinolin-1 (2H)-one]
> 10000 nM	7460 nM	1430 nM	CCOc1cncc(-c2ccc3c(-c4cc5c(c(OC)c4)C(=O)N(CC(F)(F)F)CC5)coc3c2)c1 [Example 6, 6-(6-(5-ethoxypyridin-3-yl)benzofuran-3-yl)-8-methoxy-2-(2,2,2-trifluoroethyl)-3,4-dihydroisoquinolin-1 (2H)-one]
